Entries after “also recorded” stand apart in the source; their conditions may differ.
What was measured:
[1] = tested on: oxazolone induced ear inflammation in mice; assay: Oxazolone induced mouse ear oedema assay; format: in vivo
Procedure: This screening method is commonly employed for screening and evaluation of anti-inflammatory drugs, in particular with respect to the inflammation seen in contact dermatitis. Betamethasone-17 valerate was used as the positive control. […] Betamethason was administered topically in quantities of 20 μg/ear. Betamethason was applied in the commercial form Celeston valerate® 0.1%. All groups were immunised with 20 μl oxazolone, 1.6% in ethanol 96% (w/v) on the left and the right ear. The ear thickness of all mice on both the left and right side was measured with an electronic measuring gauge. All groups were challenged with 20 μl oxazolone (1.6% in ethanol 96% (w/v)) on the left ear and the right ear. Vehicle (acetone) or test article solutions were administered 20 minutes before and 20 minutes after oxazolone challenge. 24 hours after oxazolone challenge the ear thickness of all mice was measured with an electronic measuring gauge. Mean thickness of the ears and standard deviations were calculated. Ear swelling was calculated as the difference between the ear thickness day 7 and day 8. […] Differences in ear swelling between the vehicle treated group and the other groups were tested for significance employing a non-parametric statistical method of analysis, the Mann-Whitney U test. The required level of significance was p<0.05. […] Both test articles were applied in a dose of 500 μg/ear and dissolved in 96% ethanol. Betamethason, as the positive control was administered topically in quantities of 20 μg/ear.

Phosphodiesterase PDE IV = assay: enzyme assay, Phosphodiesterase PDE IV (MDS Pharma Service No 154000); format: biochemical; conditions: in words, comparison
[2] = target: T1, Protein Tyrosine Kinase, SYK (Homo sapiens, UniProt P43405); assay: enzyme assay, Protein Tyrosine Kinase SYK (MDS Pharma Service No 155761); format: biochemical; conditions: in words, comparison
T1 construct: purchased MDS Pharma Services (printed once as 'MSD Pharma Services') 155761
Procedure: (§1) The enzyme assays were conducted by MSD Pharma Services.

[3] = target: T2, Protein Tyrosine Kinase, ZA70 (ZAP-70) (Homo sapiens, UniProt P43403); assay: enzyme assay, Protein Tyrosine Kinase ZA70 (ZAP-70) (MDS Pharma Service No 155987); format: biochemical; conditions: in words, comparison
T2 construct: purchased MDS Pharma Services (printed once as 'MSD Pharma Services') 155987
T2 sequence (P43403 1-619): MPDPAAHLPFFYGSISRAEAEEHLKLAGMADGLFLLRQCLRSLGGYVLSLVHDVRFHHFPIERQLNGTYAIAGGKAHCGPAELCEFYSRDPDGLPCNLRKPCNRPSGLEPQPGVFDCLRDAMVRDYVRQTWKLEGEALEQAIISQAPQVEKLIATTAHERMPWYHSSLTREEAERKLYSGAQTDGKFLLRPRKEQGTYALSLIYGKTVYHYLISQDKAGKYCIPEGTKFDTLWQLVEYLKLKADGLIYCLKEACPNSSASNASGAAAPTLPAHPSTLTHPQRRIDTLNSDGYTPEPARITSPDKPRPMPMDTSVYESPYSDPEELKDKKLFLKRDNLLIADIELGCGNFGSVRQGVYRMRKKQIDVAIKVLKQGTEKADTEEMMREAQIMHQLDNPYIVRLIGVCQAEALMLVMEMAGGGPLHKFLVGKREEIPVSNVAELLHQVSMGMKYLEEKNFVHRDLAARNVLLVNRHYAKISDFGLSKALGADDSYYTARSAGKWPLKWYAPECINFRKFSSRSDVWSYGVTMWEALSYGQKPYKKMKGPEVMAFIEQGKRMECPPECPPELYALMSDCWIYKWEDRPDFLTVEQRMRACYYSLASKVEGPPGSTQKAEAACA
Procedure: as §1

skin = conditions: reported in the literature; cited from earlier work
[4] = tested on: Albino guinea pigs of Dunkin-Hartley strain; conditions: guinea pig, in vivo
Procedure: Test for skin sensitization is carried out according to the Magnusson and Kligman method (J. Invest. Dermatol. 1969. 52, 268-276) and in accordance with O.E.C.D. Guideline No. 406 of Jul. 17th, 1992, and the test method B.6 of the 96/54 E.E.C Directive.
Albino guinea pigs of Dunkin-Hartley strain were exposed to the test item after an acclimatisation period of at least five days.
The Maximum Non Necrotizing Concentration (M.N.N.C.) was determined by injecting by intradermal route the following concentrations: 2.5%, 1.25%, 0.625%, 0.3125%, 0.1562% and 0.078% diluted in physiological saline solution.
Pre-Maximum Non Irritant Concentration (pre-M.N.I.C.) was determined by application of the test item under an occlusive dressing during 24 hours, at the following concentrations: 2.5%, 1.25%, 0.625%, 0.3125% diluted in physiological saline solution.
Maximum Non Irritant Concentration (M.N.I.C.) was determined by initially establishing an induction phase by intradermal injection with a physiological saline solution and by topical application of distilled water followed by a 18-day rest phase. In the challenge phase where the test item is under occlusive dressing for 24 hours, the test item was applied to the skin of the Albino guinea pigs at the following concentrations: 2.5%, 1.25%, 0.625%, 0.3125% diluted in physiological saline solution.

undamaged skin area = assay: Acute dermal irritation; format: in vivo
Procedure: The sample was applied at a dose of 0.5 mL, on an undamaged skin area of the right flank of each animal. The patch was secured in position with a strip of surgical adhesive tape.
On the left flank an untreated area served as the control.
The skin reactions were evaluated after 1 hour and then after 24, 48 and 72 hours following removal of the patch according to the following grading scale:
Erythema (0: No erythema, 1: Slight(barelyperceptible)erythema, 2: Definite erythema, 3: Moderate to severe erythema, 4: Severe erythema (purpie) with formation of eschars (deep lesions) preventing erythema from being grading).
Oedema (0: No oedema, 1: Very slight (barely perceptible) oedema, 2: Slight oedema (contour clearly defined), 3: Moderate oedema (thickness), 4: Severe oedema (thickness greater than 1 mm, surface larger than zone of application)

[5] = tested on: moderate to severe inflammation following treatment with cryotherapy; conditions: topically applied; cited from earlier work
[6] = tested on: experimental contact dermatitis; conditions: topically applied; cited from earlier work

For `CCCCC(=O)O[C@]1(C(=O)CO)[C@@H](C)C[C@H]2[C@@H]3CCC4=CC(=O)C=C[C@]4(C)[C@@]3(F)[C@@H](O)C[C@@]21C` [Betamethasone 17-valerate], the “% inhibition of ear swelling” value ([1]; 20 μg/ear topical (Celeston valerate 0.1%), 24 hours after challenge) was 66%.

In the case of `CCCCOc1ccc(CC(=O)NO)cc1` [Bufexamac], the “inhibitory effect on the PDE-IV enzyme” value (Phosphodiesterase PDE IV) is reported as “inhibitory effect”, the “inhibitory effect on Protein Tyrosine Kinase SYK” value [2] is reported as “only exhibits inhibitory effect on the PDE-IV enzyme” and the “inhibitory effect on Protein Tyrosine Kinase ZAP-70” value [3] is reported as “only exhibits inhibitory effect on the PDE-IV enzyme”. The cutaneous side effects (skin) was “cause contact allergy; also recorded: major contact allergens”.

In the case of `O=C(O)Cc1ccccc1Nc1c(Cl)cccc1Cl` [Diclofenac], the cutaneous side effects (skin) is listed as “irritant-type contact dermatitis may develop”.

For `CC(C(=O)O)c1cccc(C(=O)c2ccccc2)c1` (stereo not shown) [Ketoprofen], the cutaneous side effects (skin) is listed as “major contact allergens”.

In the case of `O=C(O)CCc1nc(-c2ccccc2)c(-c2ccccc2)o1` [Monoethanolamine Oxaprozin], the “inhibition of ear swelling (conclusion in words)” value ([1]; 250-1000 μg/ear topical) is reported as “dose dependent and highly significant inhibition” and the “sensitization, macroscopic cutaneous reactions in the challenge phase” value [4] is reported as “No macroscopic cutaneous reactions attributable to allergy”.

For `O=C(O)CCc1nc(-c2ccccc2)c(-c2ccccc2)o1` [Oxaprozin, 4,5-diphenyl-2-oxazole-propionic acid], the “inhibition of the formation of ear oedema” value ([1]; Example 7, 500 μg/ear dissolved in 96% ethanol) was “statistically significant inhibition”, the “cutaneous reactions (erythema and oedema)” value (undamaged skin area; 2.5% by weight in water (monoethanolamine salt), 0.5 mL, 1, 24, 48 and 72 hours) was “no cutaneous reactions” and the “erythema on the treated area” value (undamaged skin area; 5% by weight in water (monoethanolamine salt), 0.5 mL, reading time 1 hour) was “slight erythema”. For the same compound, the “reversibility of the erythema” value (undamaged skin area; 5% by weight, between the 2nd and the 3rd day of the test) was “totally reversible”.

In the case of `CC(=O)Oc1ccccc1C(=O)O` [aspirin], the cutaneous side effects (skin) is given as “may induce urticarial reactions”.

For `CCC(=O)O[C@]1(C(=O)CCl)[C@@H](C)C[C@H]2[C@@H]3CCC4=CC(=O)C=C[C@]4(C)[C@@]3(F)[C@@H](O)C[C@@]21C` [clobetasol propionate], the “relieving the erythema and oedema” value [5] is listed as “proved to have effect”.

For `COc1ccc2c(c1)c(CC(=O)O)c(C)n2C(=O)c1ccc(Cl)cc1` [indomethacin], the “response in an animal model of contact dermatitis” value [6] is given as “has been shown to respond”, the “relieving the erythema and oedema” value [5] is given as “poor effect” and the cutaneous side effects (skin) is given as “may induce urticarial reactions”.

In the case of `CN1C(C(=O)Nc2ccccn2)=C(O)c2ccccc2S1(=O)=O` [piroxicam], the cutaneous side effects (skin) is given as “phototoxic or photoallergic dermatitis”.

— patent US20060251689A1, “Treatment or prevention of pruritus” (Astion Development A/S, priority 2005, published 2006)
